Laboratory results published in US20240409935A1, “Atg8ylation coordinates stress granule formation and mTOR inactivation in response to lysosomal damage” (priority 2023, published 2024).

Assays:
[1] = system: G3BP1 puncta in BMM (bone-marrow-derived macrophages); assay: HCM quantification of G3BP1 puncta in BMM; format: cell-based, murine; conditions: 2 mM LLOMe for 2 h
Experimental: Three groups of proteins are labeled (ESCRT components in green, autophagy factors in blue and stress granule components in purple). […] The dotted orange line indicates the significance cut-off (P<0.05). […] The significant increased proteins in LysoIP LC/MS/MS were analyzed by STRING functional protein association networks. […] Strength, Log 10(observed/expected) describes how large the enrichment effect is. […] TMEM192-2×FLAG, control. […] U20S cells Were treated with Earle's Balanced Salt Solution (EBSS), 4 mM LOMe, 2 mM LLOMe, 200 μM GPN, or 400 μg/mL silica for 30 min. White masks, algorithm-defined cell boundaries (primary objects); red masks, computer-identified G3BP1 puncta (target objects). […] The level of phosphorylation of eIF2α (S51) is quantified based on three independent experiments. […] The level of ATF4 and phosphorylation of eIF2α (S51) and 4EBP1 (S65) are quantified based on three independent experiments. […]
The inventors tested whether lysosomal damage induces SG formation using the conventional marker of SGs G3BP1 (Jain et al., 2016; Kedersha et al., 2005; Yang et al., 2020). […] For unbiased quantification, the inventors employed high content microscopy (HCM), which depends on epifluorescence mode to capture all cellular profiles in a volume. […] In all cell lines and primary cells tested, SG formation was observed upon lysosomal damage and quantified by HCM.

[2] = system: NUFIP2; assay: Confocal microscopy of NUFIP2 localisation in Huh7 cells; format: cell-based, human; conditions: 2 mM LLOMe for 30 min
Experimental: Huh7 cells Were treated with 2 mM LLOMe for 30 min and stained for endogenous G3BP1 and NUFIP2. Scale bar, 5 μm. […] The sequence in red (SEQ ID NO: 1), predicted NLS in NUFIP2, was deleted for generating NUFIP2ΔNLS. […] FIG. 4SG show the quantification by HCM of overlaps between mTOR and LAMP2 in Gal8WT^HeLa or Gal8KO^HeLa cells treated with 2 mM LLOMe for 30 min. White masks, algorithm-defined cell boundaries. Yellow masks, computer-identified overlap of mTOR and LAMP2. […] Red masks, computer-identified G3BP1 puncta. Ctrl, control (untreated cells). Data, means±SEM; HCM: n≥3 (each experiment: 500 valid primary objects/cells per Well, ≥5 Well s/sample). †p≥0.05 (not significant), **p<0.01, ANOVA. See also FIG. 3 and FIG. 4.

[3] = system: PKR; assay: Immunoblot analysis of PKR (T446) phosphorylation in U2OS cells; format: cell-based, human; conditions: 2 mM LLOMe for 30 min
Excerpt: The level of phosphorylation of eIF2α (S51) is quantified based on three independent experiments. […] Red masks, computer-identified G3BP1 puncta. […] Ctrl, control (untreated cells). Data, means±SEM; HCM: n≥3 (each experiment: 500 valid primary objects/cells per Well, ≥5 Well s/sample). *p<0.05, **p<0.01, ANOVA. See also FIG. 2S.

[4] = system: G3BP1 puncta in Huh7 cells; assay: HCM quantification of G3BP1 puncta in Huh7 cells; format: cell-based, human; conditions: 2 mM LLOMe for 30 min
[5] = system: GABARAP; assay: Immunoblot analysis of GABARAP lipidation in U2OS cells; format: cell-based, human; conditions: 2 mM LLOMe, indicated time points
[6] = system: ALIX, PKR and PACT; assay: Co-IP analysis of interactions among FLAG-ALIX, PKR and PACT in HEK293T cells; format: cell-based, human; conditions: 1 mM LLOMe for 30 min
Experimental: HEK293T cells expressing FLAG (control) or FLAG-ALIX Were treated with 1 mM LLOMe for 30 min. Cell lysates Were immunoprecipitated with anti-FLAG antibody and immunoblotted for indicated proteins. […] FL (full length); Bro1 (Bro1 domain); V domain; PRD (proline-rich domain). Numbers, residue positions. (ii) Schematic illustration of the Ca^2+/ALG-2-induced open conformation of ALIX. […] HEK293T cells expressing FLAG tagged ALIX mutants and Myc-PKR Were treated with 1 mM LLOMe for 30 min. Cell lysates Were immunoprecipitated with anti-GFP antibody and immunoblotted for indicated proteins. FIG. 12F Analysis of proteins associated with purified lysosomes (LysoIP; TMEM192-3×HA) from HEK293T cells transfected with scrambled siRNA as control (SCR), or ALIX siRNA for knockdown (ALIX^KD). Cells Were treated with 1 mM LLOMe for 30 min. FIG. 12G Schematic summary of the findings in FIGS. 5 and S5. One of three independent western Blot experiments shown. See also FIG. 1S1.

[7] = system: polyA RNA in G3BP1 puncta; assay: Confocal microscopy of G3BP1 and polyA RNA (Cy3-oligo[dT]) by FISH in U2OS cells; format: cell-based, human; conditions: 2 mM LLOMe for 30 min
[8] = system: mTOR; assay: mTOR/mTORC1 activity by phosphorylation of its substrates (4EBP1 S65, ULK1 S757, S6K1 T389) in U2OS cells; format: cell-based, human; conditions: U2OS cells

## COC(=O)[C@H](CC(C)C)NC(=O)[C@@H](N)CC(C)C [LLOMe, L-leucyl-L-leucine methyl ester]
[1]
  SG formation (G3BP1 puncta): SGs Were detected
[2]
  NUFIP2 localisation upon lysosomal damage: NUFIP2 translocated from the nucleus into the cytosol
[3]
  PKR activation assessed by phosphorylation at Thr446: PKR was activated
[4]
  SG response (G3BP1 puncta): SG response was detected
[5]
  GABARAP lipidation: GABARAP was lipidated
[6]
  interaction between FLAG-ALIX and endogenous PKR and PACT (co-IP): notably enhanced
[7]
  overlap of G3BP1 puncta with polyA RNA probe (Cy3-oligo-dT, FISH): completely overlapped with polyA RNA probe
[8]; 2 mM LLOMe for 30 min
  ULK1 phosphorylation by mTOR at Ser757: diminished
[8]; 2 mM LLOMe, indicated time points
  mTOR activity as measured by 4EBP1 phosphorylation: inhibition of mTOR
[8]; indicated dose of LLOMe for 30 min
  mTORC1 inactivation (4EBP1 S65), dose dependence: mTORC1 inactivation in a dose-dependent manner
